{"source": "paper PMC12486850", "about": "“Dual mechanism of the OXA-23 carbapenemase inhibition by the carbapenem NA-1-157” (Antimicrobial Agents and Chemotherapy, 2025)", "key": {"OXA-23 [1]": {"molecular_target": "T1, OXA-23 (Acinetobacter baumannii, UniProt Q9L4P2)", "T1 construct": "5'-truncated (54 bp) E. coli-optimized blaOXA-23 gene", "T1 sequence (Q9L4P2 19-273)": "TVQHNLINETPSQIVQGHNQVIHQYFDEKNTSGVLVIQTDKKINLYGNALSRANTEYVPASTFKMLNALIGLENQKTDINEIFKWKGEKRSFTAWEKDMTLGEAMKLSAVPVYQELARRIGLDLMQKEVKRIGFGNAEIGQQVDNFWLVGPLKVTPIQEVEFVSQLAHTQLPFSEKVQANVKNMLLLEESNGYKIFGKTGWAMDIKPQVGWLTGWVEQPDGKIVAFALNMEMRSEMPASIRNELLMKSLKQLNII", "assay": "time-resolved crystal structures ([…] min soaks), ESI-LC/MS, nitrocefin competition kinetics", "format": "biochemical"}, "OXA-23 [2]": {"molecular_target": "T1, OXA-23", "assay": "crystal structure of the acyl-enzyme complex ([…] min soak, […] meropenem)", "format": "binding"}}, "data": [{"molecule": "C[C@@H](O)[C@H]1C(=O)N2C(C(=O)O)=C(S[C@@H]3CN[C@H](C(=O)N(C)C)C3)C[C@]12C", "note": "[NA-1-157]", "values": [{"measurement": "Ki", "setting": "OXA-23 [1]", "result": "0.59 ± 0.02", "unit": "µM"}]}, {"molecule": "C[C@@H](O)[C@H]1C(=O)N2C(C(=O)O)=C(S[C@@H]3CN[C@H](C(=O)N(C)C)C3)[C@H](C)[C@H]12", "note": "[meropenem]", "values": [{"measurement": "crystal structure of the acyl-enzyme complex (6 min soak, 20 mM meropenem)", "setting": "OXA-23 [2]", "result": "In the OXA-23–meropenem acyl-enzyme complex, meropenem is covalently attached to the Ser70 side chain"}]}]}
